Reference: ChEMBL document CHEMBL1201862, “PubChem BioAssay data set” (2004)
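Five concentrations, 48 hours, 96-well plates. At the GI50, growth is halved.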 The source made the active and inactive calls. Cut-off read from the data, not from the text of the source: active = GI50 up to about 1.1 µM and inactive = higher.

Columns and labels:
Experiment in all cases: NCI anticancer screen, dose series, 48 h
UACC-257 = test system: UACC-257
HCC 2998 = test system: HCC 2998
OVCAR-8 = test system: OVCAR-8
SK-MEL-2 = test system: SK-MEL-2
U-251 = test system: U-251
A498 = test system: A498
CCRF-CEM = test system: CCRF-CEM
TK-10 = test system: TK-10
NCI/ADR-RES = test system: NCI/ADR-RES
SNB-75 = test system: SNB-75
HOP-62 = test system: HOP-62
UACC-62 = test system: UACC-62
T47D = test system: T47D
A549 = test system: A549
HT-29 = test system: HT-29
MDA-MB-435 = test system: MDA-MB-435
DU-145 = test system: DU-145
HL-60 = test system: HL-60
M14 = test system: M14
MCF7 = test system: MCF7
COLO 205 = test system: COLO 205
SK-MEL-5 = test system: SK-MEL-5
SF-268 = test system: SF-268
SF-295 = test system: SF-295
HOP-92 = test system: HOP-92
HCT-116 = test system: HCT-116
EKVX = test system: EKVX
MDA-MB-231 = test system: MDA-MB-231
SNB-19 = test system: SNB-19
NCI-H522 = test system: NCI-H522
SK-OV-3 = test system: SK-OV-3
786-0 = test system: 786-0
RPMI-8226 = test system: RPMI-8226
MDA-N = test system: MDA-N
ACHN = test system: ACHN
KM12 = test system: KM12
NCI-H460 = test system: NCI-H460
SF-539 = test system: SF-539
Malme-3M = test system: Malme-3M
SR = test system: SR
CAKI-1 = test system: CAKI-1
RXF 393 = test system: RXF 393
SK-MEL-28 = test system: SK-MEL-28
Hs-578T = test system: Hs-578T
LOX IMVI = test system: LOX IMVI
NCI-H226 = test system: NCI-H226
OVCAR-3 = test system: OVCAR-3
UO-31 = test system: UO-31
SW-620 = test system: SW-620
MOLT-4 = test system: MOLT-4
NCI-H23 = test system: NCI-H23
HCT-15 = test system: HCT-15
OVCAR-5 = test system: OVCAR-5
K562 = test system: K562
OVCAR-4 = test system: OVCAR-4
BT-549 = test system: BT-549
IGROV-1 = test system: IGROV-1
PC-3 = test system: PC-3
SN12C = test system: SN12C

`CC1=C2C(=C[C@@](C)(CO)[C@@H]2O)C(=O)[C@](C)(O)C12CC2` [ILLUDIN] was tested, and the GI50 (UACC-257) was 0.0145 µM (active), the GI50 (HCC 2998) was 0.013 µM (active) and the GI50 (OVCAR-8) was 0.0133 µM (active). The GI50 (SK-MEL-2) was 0.0143 µM (active), the GI50 (U-251) was 0.00213 µM (active) and the GI50 (A498) was 0.0104 µM (active). For the same molecule, the GI50 (CCRF-CEM) was 0.0169 µM (active), the GI50 (TK-10) was 0.0223 µM (active) and the GI50 (NCI/ADR-RES) was 0.0074 µM (active). For the same molecule, the GI50 (SNB-75) was 0.0138 µM (active), the GI50 (HOP-62) was 0.00705 µM (active) and the GI50 (UACC-62) was 12.9 nM (active). The GI50 (T47D) was 0.0123 µM (active), the GI50 (A549) was 0.00458 µM (active) and the GI50 (HT-29) was 0.00341 µM (active). For the same molecule, the GI50 (MDA-MB-435) was 0.0156 µM (active), the GI50 (DU-145) was 0.0181 µM (active) and the GI50 (HL-60) was 0.00427 µM (active). The GI50 (M14) was 0.00891 µM (active), the GI50 (MCF7) was 0.00284 µM (active) and the GI50 (COLO 205) was 0.00771 µM (active). The GI50 (SK-MEL-5) was 0.00596 µM (active), the GI50 (SF-268) was 0.00293 µM (active) and the GI50 (SF-295) was 0.00251 µM (active). The GI50 (HOP-92) was 0.0232 µM (active), the GI50 (HCT-116) was 0.00386 µM (active) and the GI50 (EKVX) was 0.027 µM (active). The GI50 (MDA-MB-231) was 0.0213 µM (active), the GI50 (SNB-19) was 0.0282 µM (active) and the GI50 (NCI-H522) was 0.00352 µM (active). The GI50 (SK-OV-3) was 6.12 nM (active), the GI50 (786-0) was 0.00353 µM (active) and the GI50 (RPMI-8226) was 0.855 µM (active). For the same molecule, the GI50 (MDA-N) was < 0.0117 µM (active), the GI50 (ACHN) was 0.00849 µM (active) and the GI50 (KM12) was 0.0212 µM (active). For the same molecule, the GI50 (NCI-H460) was 0.00147 µM (active), the GI50 (SF-539) was 0.00506 µM (active) and the GI50 (Malme-3M) was 0.00889 µM (active). The GI50 (SR) was 0.00182 µM (active), the GI50 (CAKI-1) was 0.0158 µM (active) and the GI50 (RXF 393) was 0.00664 µM (active). The GI50 (SK-MEL-28) was 0.0167 µM (active), the GI50 (Hs-578T) was 0.0169 µM (active) and the GI50 (LOX IMVI) was 0.00313 µM (active). The GI50 (NCI-H226) was 0.0231 µM (active), the GI50 (OVCAR-3) was 0.0187 µM (active) and the GI50 (UO-31) was 0.0147 µM (active). For the same molecule, the GI50 (SW-620) was 0.00305 µM (active), the GI50 (MOLT-4) was 0.00731 µM (active) and the GI50 (NCI-H23) was 0.0052 µM (active). The GI50 (HCT-15) was 0.00675 µM, the GI50 (OVCAR-5) was 0.0106 µM (active) and the GI50 (K562) was 0.012 µM (active). The GI50 (OVCAR-4) was 0.00667 µM (active), the GI50 (BT-549) was 0.00658 µM (active) and the GI50 (IGROV-1) was 0.0155 µM (active). For the same molecule, the GI50 (PC-3) was 0.0143 µM (active) and the GI50 (SN12C) was 0.019 µM (active).
For `COc1cc(CNNC(N)=S)cc(OC)c1OC`, the GI50 (UACC-257) was > 100 µM (inactive), the GI50 (HCC 2998) was > 100 µM (inactive) and the GI50 (OVCAR-8) was > 100 µM (inactive). For the same molecule, the GI50 (U-251) was > 100 µM (inactive), the GI50 (A498) was > 100 µM (inactive) and the GI50 (CCRF-CEM) was > 100 µM (inactive). For the same molecule, the GI50 (TK-10) was > 100 µM (inactive), the GI50 (NCI/ADR-RES) was > 100 µM (inactive) and the GI50 (SNB-75) was > 100 µM (inactive). The GI50 (HOP-62) was 90.6 µM (inactive), the GI50 (T47D) was 7.03 µM (inactive) and the GI50 (A549) was > 100 µM (inactive). For the same molecule, the GI50 (HT-29) was > 100 µM (inactive), the GI50 (MDA-MB-435) was > 100 µM (inactive) and the GI50 (DU-145) was > 100 µM (inactive). For the same molecule, the GI50 (HL-60) was > 100 µM (inactive), the GI50 (M14) was > 100 µM (inactive) and the GI50 (MCF7) was > 100 µM (inactive). The GI50 (COLO 205) was > 100 µM (inactive), the GI50 (SK-MEL-5) was > 100 µM (inactive) and the GI50 (SF-268) was > 100 µM (inactive). The GI50 (SF-295) was > 100 µM (inactive), the GI50 (HOP-92) was 3.46 µM (inactive) and the GI50 (HCT-116) was > 100 µM (inactive). The GI50 (EKVX) was > 100 µM (inactive), the GI50 (MDA-MB-231) was > 100 µM (inactive) and the GI50 (SNB-19) was > 100 µM (inactive). The GI50 (NCI-H522) was > 100 µM (inactive), the GI50 (786-0) was > 100 µM (inactive) and the GI50 (RPMI-8226) was > 100 µM (inactive). The GI50 (MDA-N) was > 100 µM (inactive), the GI50 (ACHN) was > 100 µM (inactive) and the GI50 (KM12) was > 100 µM (inactive). For the same molecule, the GI50 (NCI-H460) was > 100 µM (inactive), the GI50 (SF-539) was > 100 µM (inactive) and the GI50 (Malme-3M) was > 100 µM (inactive). The GI50 (SR) was > 100 µM (inactive), the GI50 (CAKI-1) was 6.27 µM (inactive) and the GI50 (RXF 393) was > 100 µM (inactive). The GI50 (SK-MEL-28) was > 100 µM (inactive), the GI50 (Hs-578T) was > 100 µM (inactive) and the GI50 (LOX IMVI) was > 100 µM (inactive). The GI50 (NCI-H226) was > 100 µM (inactive), the GI50 (OVCAR-3) was > 100 µM (inactive) and the GI50 (UO-31) was > 100 µM (inactive). For the same molecule, the GI50 (SW-620) was > 100 µM (inactive), the GI50 (MOLT-4) was > 100 µM (inactive) and the GI50 (NCI-H23) was > 100 µM (inactive). The GI50 (HCT-15) was greater than 100 µM, the GI50 (OVCAR-5) was 95.1 µM (inactive) and the GI50 (K562) was > 100 µM (inactive). The GI50 (BT-549) was 22.3 µM (inactive), the GI50 (IGROV-1) was > 100 µM (inactive) and the GI50 (PC-3) was > 100 µM (inactive). For the same molecule, the GI50 (SN12C) was > 100 µM (inactive).
For `O=C1/C(=C/c2cccs2)N=C(c2ccccc2)N1C1Nc2cc3c(cc2S1)NC(N1C(=O)/C(=C/c2cccs2)N=C1c1ccccc1)S3` (stereo unspecified), the GI50 (UACC-257) was 71.9 µM (inactive), the GI50 (HCC 2998) was 19.3 µM (inactive) and the GI50 (OVCAR-8) was 17.1 µM (inactive). The GI50 (SK-MEL-2) was 18.6 µM (inactive), the GI50 (U-251) was 16 µM (inactive) and the GI50 (A498) was 69.5 µM (inactive). For the same molecule, the GI50 (TK-10) was 41.5 µM (inactive), the GI50 (NCI/ADR-RES) was 13.9 µM (inactive) and the GI50 (SNB-75) was 25.4 µM (inactive). The GI50 (HOP-62) was 30.8 µM (inactive), the GI50 (T47D) was 51.8 µM (inactive) and the GI50 (A549) was 14.6 µM (inactive). The GI50 (HT-29) was 25.3 µM (inactive), the GI50 (MDA-MB-435) was 17.7 µM (inactive) and the GI50 (DU-145) was 24.7 µM (inactive). The GI50 (HL-60) was 2.59 µM (inactive), the GI50 (M14) was 18.2 µM (inactive) and the GI50 (MCF7) was 23 µM (inactive). The GI50 (SK-MEL-5) was 17 µM (inactive), the GI50 (SF-268) was 20.2 µM (inactive) and the GI50 (SF-295) was 60.1 µM (inactive). For the same molecule, the GI50 (HOP-92) was > 100 µM (inactive), the GI50 (HCT-116) was 15 µM (inactive) and the GI50 (EKVX) was 15.6 µM (inactive). For the same molecule, the GI50 (MDA-MB-231) was 30.2 µM (inactive), the GI50 (NCI-H522) was 13.4 µM (inactive) and the GI50 (786-0) was 16.4 µM (inactive). The GI50 (RPMI-8226) was 19.8 µM (inactive), the GI50 (MDA-N) was 18.6 µM (inactive) and the GI50 (ACHN) was 34.1 µM (inactive). The GI50 (KM12) was 32.8 µM (inactive), the GI50 (NCI-H460) was 6.97 µM (inactive) and the GI50 (SF-539) was 14 µM (inactive). For the same molecule, the GI50 (SR) was 3.07 µM (inactive), the GI50 (CAKI-1) was 48.6 µM (inactive) and the GI50 (RXF 393) was 23.3 µM (inactive). For the same molecule, the GI50 (SK-MEL-28) was 32.3 µM (inactive), the GI50 (Hs-578T) was 24.2 µM (inactive) and the GI50 (LOX IMVI) was 15 µM (inactive). For the same molecule, the GI50 (NCI-H226) was 20.3 µM (inactive), the GI50 (OVCAR-3) was 30.7 µM (inactive) and the GI50 (UO-31) was 35.3 µM (inactive). The GI50 (SW-620) was 26.9 µM (inactive), the GI50 (MOLT-4) was 12.6 µM (inactive) and the GI50 (NCI-H23) was 17.4 µM (inactive). For the same molecule, the GI50 (HCT-15) was 15.6 µM, the GI50 (OVCAR-5) was 27.7 µM (inactive) and the GI50 (K562) was 40.9 µM (inactive). For the same molecule, the GI50 (OVCAR-4) was 24.9 µM (inactive), the GI50 (BT-549) was 18.1 µM (inactive) and the GI50 (IGROV-1) was 32.1 µM (inactive). The GI50 (PC-3) was 38.7 µM (inactive).
